From article PMC7617869, “Molecular glues that inhibit deubiquitylase activity and inflammatory signaling” (Nature Structural & Molecular Biology, 2025)
Where “and” joins values, the source holds several entries; their conditions need not be identical. Identical values can stand only once.

Legend:
ARISC = target: T1, ARISC (Homo sapiens, UniProt P46736+Q6UWZ7+Q9NXR7); test: ARISC IQF DUB activity assay; assay type: biochemical; conditions: for Normalised V0: Fig. 1e, ARISC
T1 construct: full-length BRISC (FL), ARISC (FL); made in house; host or cells: Spodoptera frugiperda (Sf9) insect cells, MultiBac
Experimental: (§1) IQF assays were performed in DUB reaction buffer containing 50 mM HEPES–NaOH pH 7.0, 100 mM NaCl, 0.1 mg ml^−1 BSA, 1 mM DTT and 0.03% v/v Brij-35. […] The final concentration of BRISC WT, all BRISC mutants, HsBRISCΔLoop, MmBRISC and DrBRISCΔNΔC was 1 nM. Other enzymes were tested at the following concentrations: 5 nM ARISC (FL), 10 nM CfBRISCΔNΔC, 250 nM AMSH* (ref. [43]), 500 nM USP2 and 1 μM trypsin (Sigma, 9002-07-7). For Michaelis–Menten experiments, 1 nM BRISC with 0–1 μM IQF K63-linked diubiquitin substrate was used. Michaelis–Menten analyses and Lineweaver–Burk plots were calculated using GraphPad Prism (version 9.0).
To assess enzymatic activity, BRISC complexes were diluted to concentrations between 1 nM and 50 nM. […] Then, 20-μl enzyme reactions were carried out in 384-well black flat-bottom low-flange plates (Corning, 35373). DUB activity was measured using IQF K63-linked diubiquitin (LifeSensors, DU6303) at 50 nM. Cleaved diubiquitin was monitored by measuring fluorescence intensity (excitation, 544 nm; emission, 575 nm; dichroic mirror, 560 nm). Fluorescence intensity was measured every minute for 30 min at 30 °C. Fluorescence intensity units were plotted against time to generate a linear reaction progress curve, where the initial velocity (V0) corresponds to the gradient of the curve (typically achieved within 15 min). IC50 values were calculated using the GraphPad Prism (version 9.0) built-in dose–response equation for inhibitor concentration versus response (variable slope).

ARISC (FL) = target: T2, ARISC (FL) (Homo sapiens, UniProt P46736+Q6UWZ7+Q9NXR7); test: In-gel deubiquitylation assay, TAMRA-labeled K63-tetraubiquitin, ARISC; assay type: biochemical; conditions: 10 μM or 100 μM inhibitor
T2 construct: full-length BRISC (FL), ARISC (FL); made in house; host or cells: Spodoptera frugiperda Sf9 insect cells (MultiBac)
Experimental: The inhibitor capzimin (Merck) was diluted in 1 mM DTT and incubated for 30 min at room temperature to reduce disulfide bonds required for inhibitor activity. […] DUBs were incubated with 750 nM TAMRA-labeled K63-tetraubiquitin (LifeSensors, SI6304T) for 10 min at 30 °C. Reactions were quenched by adding 2.5 μl of 4× SDS–PAGE loading dye (240 mM Tris-HCl pH 6.8, 40% v/v glycerol, 8% w/v SDS, 0.04% w/v bromophenol blue and 5% v/v β-mercaptoethanol). The samples were resolved on 4–12% NuPAGE Bis–Tris gels (Thermo Fisher Scientific). Gels were scanned using an iBright FL 1500 (Thermo Fisher Scientific) (excitation, 515–545 nm; emission, 568–617 nm; exposure, 500 ms).

BRISC = target: T3, BRISC (Homo sapiens, UniProt P46736+Q15018+Q9NXR7); test: Michaelis–Menten analysis of BRISC inhibition; assay type: biochemical
T3 construct: made in house; host or cells: Spodoptera frugiperda (Sf9) insect cells, MultiBac
Experimental: as §1

BRISC (FL) = target: T4, BRISC (FL) (Homo sapiens, UniProt P46736+Q15018+Q9NXR7); test: Native MS of BRISC with inhibitor; conditions: 10 μM BRISC, 1 mM inhibitor
T4 construct: full-length BRISC (FL), ARISC (FL); made in house; host or cells: Spodoptera frugiperda Sf9 insect cells (MultiBac)
Experimental: Samples were buffer-exchanged into 500 mM ammonium acetate using Zeba Spin (7-kDa molecular weight cutoff) desalting columns (Thermo Fisher Scientific). Samples were analyzed by nanoelectrospray ionization MS using a quadrupole orbitrap MS (Q-Exactive UHMR, Thermo Fisher Scientific) using gold–palladium-coated nanospray tips prepared in-house. The MS instrument was operated in positive ion mode using a capillary voltage of 1.5 kV, capillary temperature of 250 °C and S-lens radiofrequency of 200 V. In-source trapping was used with a desolvation voltage of −200 V for 4 μs. Extended trapping was not used. The quadrupole mass range was 2,000–15,000 m/z. Nitrogen gas was used in the higher-energy collisional dissociation cell with a trap gas pressure setting of 5. Orbitrap resolution was 6,250 and detector m/z optimization was low. Five microscans were averaged and an automatic gain control target of 2 × 10^5 was used. Mass calibration was performed by a separate injection of sodium iodide at a concentration of 2 μg μl^−1. Data processing was performed using QualBrowser (version 4.2.28.14) and deconvoluted using UniDec[82].

inhibition of ARISC (ARISC): did not inhibit
Normalised V0 (ARISC; JMS-175-2 0.02 μM): 0.8556 and 0.9425 and 1.0233
Normalised V0 (ARISC; JMS-175-2 0.0399999 μM): 1.026 and 1.067 and 1.046
Normalised V0 (ARISC; JMS-175-2 0.0599997 μM): 0.904 and 0.9422 and 0.9811
Normalised V0 (ARISC; JMS-175-2 0.0799994 μM): 0.9323 and 0.9821 and 1.136
Normalised V0 (ARISC; JMS-175-2 0.119998 μM): 0.8786 and 0.8823 and 0.8932
Normalised V0 (ARISC; JMS-175-2 0.199996 μM): 0.9071 and 0.9585 and 0.9413
Normalised V0 (ARISC; JMS-175-2 0.499975 μM): 0.8879 and 0.8767 and 0.9696
Normalised V0 (ARISC; JMS-175-2 0.799936 μM): 0.7555 and 0.9585 and 0.9201
Normalised V0 (ARISC; JMS-175-2 1.25984 μM): 0.8739 and 0.9751 and 0.9993
Normalised V0 (ARISC; JMS-175-2 1.9996 μM): 0.8524 and 0.9491 and 1.046
Normalised V0 (ARISC; JMS-175-2 3.159 μM): 0.8187 and 0.9789 and 0.9215
Normalised V0 (ARISC; JMS-175-2 5.19739 μM): 0.8621 and 0.9152 and 0.9509
Normalised V0 (ARISC; JMS-175-2 7.99364 μM): 0.8584 and 0.954 and 0.9288
Normalised V0 (ARISC; JMS-175-2 12.7839 μM): 0.8845 and 0.9334 and 1.056
Normalised V0 (ARISC; JMS-175-2 19.96 μM): 0.8867 and 0.9068 and 0.9342
Normalised V0 (ARISC; JMS-175-2 31.4999 μM): 0.9307 and 0.9204 and 1.017
Normalised V0 (ARISC; JMS-175-2 50.147 μM): 0.795 and 0.9622 and 0.9115
Normalised V0 (ARISC; JMS-175-2 79.7601 μM): 0.6555 and 0.8717 and 0.8624
inhibition of ARISC activity against tetraubiquitin (ARISC (FL)): did not inhibit
mode of inhibition (BRISC; enzyme activity at different substrate concentrations): not competitive inhibitors
SMILES: O=C(NC1CCNCC1)c1nn(C(=O)c2c(Cl)cccc2Cl)cc1NC(=O)c1c(Cl)cccc1Cl [JMS-175-2]
Initial velocity (FU/min) (BRISC; di-Ub-TAMRA 31.2 nM, inhibitor 48 nM): 124.7 FU/min and 137.4 FU/min and 146.6 FU/min
Initial velocity (FU/min) (BRISC; di-Ub-TAMRA 31.2 nM, inhibitor 195 nM): 137.4 FU/min and 132.5 FU/min and 144.8 FU/min
Initial velocity (FU/min) (BRISC; di-Ub-TAMRA 31.2 nM, inhibitor 781 nM): 114 FU/min and 123.2 FU/min and 122.2 FU/min
Initial velocity (FU/min) (BRISC; di-Ub-TAMRA 31.2 nM, inhibitor 3.12 μM): 80.48 FU/min and 77.42 FU/min and 88.2 FU/min
Initial velocity (FU/min) (BRISC; di-Ub-TAMRA 31.2 nM, inhibitor 12.5 μM): 62.2 FU/min and 65.87 FU/min and 55.25 FU/min
Initial velocity (FU/min) (BRISC; di-Ub-TAMRA 31.2 nM, inhibitor 50 μM): 31.39 FU/min and 49.47 FU/min and 41.04 FU/min
Initial velocity (FU/min) (BRISC; di-Ub-TAMRA 62.5 nM, inhibitor 48 nM): 222.1 FU/min and 242.3 FU/min and 243.8 FU/min
Initial velocity (FU/min) (BRISC; di-Ub-TAMRA 62.5 nM, inhibitor 195 nM): 205.5 FU/min and 232 FU/min and 265.7 FU/min
Initial velocity (FU/min) (BRISC; di-Ub-TAMRA 62.5 nM, inhibitor 781 nM): 172.4 FU/min and 226.1 FU/min and 228.4 FU/min
Initial velocity (FU/min) (BRISC; di-Ub-TAMRA 62.5 nM, inhibitor 3.12 μM): 160.2 FU/min and 117.4 FU/min and 160.5 FU/min
Initial velocity (FU/min) (BRISC; di-Ub-TAMRA 62.5 nM, inhibitor 12.5 μM): 80.26 FU/min and 123.7 FU/min and 100.7 FU/min
Initial velocity (FU/min) (BRISC; di-Ub-TAMRA 62.5 nM, inhibitor 50 μM): 43.48 FU/min and 66.23 FU/min and 64.63 FU/min
Initial velocity (FU/min) (BRISC; di-Ub-TAMRA 125 nM, inhibitor 48 nM): 476.9 FU/min and 540.8 FU/min and 503.9 FU/min
Initial velocity (FU/min) (BRISC; di-Ub-TAMRA 125 nM, inhibitor 195 nM): 474.4 FU/min and 538.4 FU/min and 481.2 FU/min
Initial velocity (FU/min) (BRISC; di-Ub-TAMRA 125 nM, inhibitor 781 nM): 402.8 FU/min and 468.4 FU/min and 474 FU/min
Initial velocity (FU/min) (BRISC; di-Ub-TAMRA 125 nM, inhibitor 3.12 μM): 310.9 FU/min and 277.7 FU/min and 256.8 FU/min
Initial velocity (FU/min) (BRISC; di-Ub-TAMRA 125 nM, inhibitor 12.5 μM): 183.3 FU/min and 175.6 FU/min and 208.5 FU/min
Initial velocity (FU/min) (BRISC; di-Ub-TAMRA 125 nM, inhibitor 50 μM): 67.12 FU/min and 88.75 FU/min and 84.05 FU/min
Initial velocity (FU/min) (BRISC; di-Ub-TAMRA 250 nM, inhibitor 48 nM): 886 FU/min and 905.7 FU/min and 906.9 FU/min
Initial velocity (FU/min) (BRISC; di-Ub-TAMRA 250 nM, inhibitor 195 nM): 866.4 FU/min and 900.9 FU/min and 960.9 FU/min
Initial velocity (FU/min) (BRISC; di-Ub-TAMRA 250 nM, inhibitor 781 nM): 740.9 FU/min and 834.7 FU/min and 869 FU/min
Initial velocity (FU/min) (BRISC; di-Ub-TAMRA 250 nM, inhibitor 3.12 μM): 573.6 FU/min and 456.6 FU/min and 483.6 FU/min
Initial velocity (FU/min) (BRISC; di-Ub-TAMRA 250 nM, inhibitor 12.5 μM): 283.5 FU/min and 316 FU/min and 354.2 FU/min
Initial velocity (FU/min) (BRISC; di-Ub-TAMRA 250 nM, inhibitor 50 μM): 119.1 FU/min and 114.6 FU/min and 160 FU/min
Initial velocity (FU/min) (BRISC; di-Ub-TAMRA 500 nM, inhibitor 195 nM): 1677 FU/min and 3345 FU/min and 1765 FU/min
Initial velocity (FU/min) (BRISC; di-Ub-TAMRA 500 nM, inhibitor 3.12 μM): 1143 FU/min and 881.4 FU/min and 1578 FU/min
Initial velocity (FU/min) (BRISC; di-Ub-TAMRA 500 nM, inhibitor 12.5 μM): 579 FU/min and 1146 FU/min and 683.3 FU/min
Initial velocity (FU/min) (BRISC; di-Ub-TAMRA 1000 nM, inhibitor 48 nM): 3019 FU/min and 3362 FU/min and 3486 FU/min
Initial velocity (FU/min) (BRISC; di-Ub-TAMRA 1000 nM, inhibitor 195 nM): 3093 FU/min and 3236 FU/min and 3210 FU/min
Initial velocity (FU/min) (BRISC; di-Ub-TAMRA 1000 nM, inhibitor 781 nM): 2371 FU/min and 2828 FU/min and 2787 FU/min
Initial velocity (FU/min) (BRISC; di-Ub-TAMRA 1000 nM, inhibitor 3.12 μM): 1731 FU/min and 1418 FU/min and 1905 FU/min
Initial velocity (FU/min) (BRISC; di-Ub-TAMRA 1000 nM, inhibitor 12.5 μM): 1009 FU/min and 1193 FU/min and 1032 FU/min
Initial velocity (FU/min) (BRISC; di-Ub-TAMRA 1000 nM, inhibitor 50 μM): 371.3 FU/min and 640.2 FU/min and 667.9 FU/min
BRISC dimers detected by native MS (BRISC (FL)): BRISC dimers with 4:4:4:4 stoichiometry were detected
